Assay results from PubChem BioAssay AID1745844 (Carcinogenic Potency Database (CPDB), 2022).
Active and inactive are the calls of the source. How the calls were made is not given here.

Tested on: rodent lifetime carcinogenesis bioassay, tumor incidence TD50
Assay: chronic cancer bioassays in animals – CPDB, compiled studies (AID 1745844)

Nc1ccccc1
TD50 (mouse, strain B6C3F1, females, in feed, site: any site (literature study), lesion: several types, types named in the paper, dosed 103 weeks, study length 107 weeks): 9150 mg/kg/day (inactive)
TD50 (mouse, strain B6C3F1, females, in feed, site: liver, lesion: hepatocellular adenoma + hepatocellular carcinoma + neoplastic nodule, dosed 103 weeks, study length 107 weeks): 8850 mg/kg/day
carcinogen call (mouse, strain B6C3F1, males, in feed, site: any site (literature study), lesion: several types, types named in the paper, dosed 103 weeks, study length 107 weeks): negative (inactive)
TD50 (rat, strain Fischer 344, females, in feed, site: liver, lesion: hepatocellular adenoma + hepatocellular carcinoma + neoplastic nodule, dosed 103 weeks, study length 107 weeks): 13000 mg/kg/day
TD50 (rat, strain Fischer 344, females, in feed, site: multiple organs + spleen, lesion: fibrosarcoma + sarcoma, NOS, dosed 103 weeks, study length 107 weeks): 1740 mg/kg/day
TD50 (rat, strain Fischer 344, males, in feed, site: adrenal gland, lesion: pheochromocytoma + pheochromocytoma, malignant, dosed 103 weeks, study length 107 weeks): 556 mg/kg/day
TD50 (rat, strain Fischer 344, males, in feed, site: any site (literature study), lesion: several types, types named in the paper, dosed 103 weeks, study length 107 weeks): 124 mg/kg/day
TD50 (rat, strain Fischer 344, males, in feed, site: body cavities + multiple organs + spleen, lesion: mesothelioma, NOS + fibrosarcoma + hemangiosarcoma + sarcoma, NOS, dosed 103 weeks, study length 107 weeks): 88 mg/kg/day
TD50 (rat, strain Fischer 344, males, in feed, site: body cavities + multiple organs + spleen, lesion: mesothelioma, NOS + fibrosarcoma + sarcoma, NOS, dosed 103 weeks, study length 107 weeks): 263 mg/kg/day
TD50 (rat, strain Fischer 344, males, in feed, site: body cavities + multiple organs + spleen, lesion: mesothelioma, NOS + hemangiosarcoma, dosed 103 weeks, study length 107 weeks): 146 mg/kg/day
TD50 (rat, strain Fischer 344, males, in feed, site: body cavities + multiple organs, lesion: mesothelioma, NOS + fibrosarcoma + sarcoma, NOS, dosed 103 weeks, study length 107 weeks): 572 mg/kg/day
TD50 (rat, strain Fischer 344, males, in feed, site: spleen, lesion: fibrosarcoma + sarcoma, NOS, dosed 103 weeks, study length 107 weeks): 451 mg/kg/day
TD50 (rat, strain Fischer 344, males, in feed, site: spleen, lesion: hemangiosarcoma, dosed 103 weeks, study length 107 weeks): 160 mg/kg/day

Nc1ccc2nc3ccccn3c2n1
TD50 (mouse, strain CDF1, females, in feed, site: blood vessels, lesion: hemangioendothelial sarcoma, dosed 82 weeks, study length 82 weeks): 43 mg/kg/day
TD50 (mouse, strain CDF1, females, in feed, site: blood vessels, lesion: several types, types named in the paper, dosed 82 weeks, study length 82 weeks): 39.9 mg/kg/day
TD50 (mouse, strain CDF1, females, in feed, site: liver, lesion: hepatocellular adenoma, dosed 82 weeks, study length 82 weeks): 170 mg/kg/day
TD50 (mouse, strain CDF1, females, in feed, site: liver, lesion: hepatocellular carcinoma, dosed 82 weeks, study length 82 weeks): 20 mg/kg/day
TD50 (mouse, strain CDF1, females, in feed, site: liver, lesion: several types, types named in the paper, dosed 82 weeks, study length 82 weeks): 12 mg/kg/day
TD50 (mouse, strain CDF1, females, in feed, site: lung, lesion: adenoma, dosed 82 weeks, study length 82 weeks): 1090 mg/kg/day
TD50 (mouse, strain CDF1, males, in feed, site: blood vessels, lesion: hemangioendothelial sarcoma, dosed 84 weeks, study length 84 weeks): 27.3 mg/kg/day
TD50 (mouse, strain CDF1, males, in feed, site: blood vessels, lesion: several types, types named in the paper, dosed 84 weeks, study length 84 weeks): 23.9 mg/kg/day
TD50 (mouse, strain CDF1, males, in feed, site: liver, lesion: hepatocellular adenoma, dosed 84 weeks, study length 84 weeks): 201 mg/kg/day
TD50 (mouse, strain CDF1, males, in feed, site: liver, lesion: hepatocellular carcinoma, dosed 84 weeks, study length 84 weeks): 255 mg/kg/day
TD50 (mouse, strain CDF1, males, in feed, site: liver, lesion: several types, types named in the paper, dosed 84 weeks, study length 84 weeks): 93.2 mg/kg/day
TD50 (mouse, strain CDF1, males, in feed, site: lung, lesion: adenoma, dosed 84 weeks, study length 84 weeks): 483 mg/kg/day
TD50 (rat, strain F344/DuCrj, females, in feed, site: Zymbal's gland, lesion: squamous-cell carcinoma, dosed 104 weeks, study length 104 weeks): 94 mg/kg/day
TD50 (rat, strain F344/DuCrj, females, in feed, site: clitoral gland, lesion: one or several types, types not named, dosed 104 weeks, study length 104 weeks): 56.4 mg/kg/day
TD50 (rat, strain F344/DuCrj, females, in feed, site: colon, lesion: adenocarcinoma, dosed 104 weeks, study length 104 weeks): 351 mg/kg/day
TD50 (rat, strain F344/DuCrj, females, in feed, site: colon, lesion: adenoma, dosed 104 weeks, study length 104 weeks): 111 mg/kg/day
TD50 (rat, strain F344/DuCrj, females, in feed, site: colon, lesion: several types, types named in the paper, dosed 104 weeks, study length 104 weeks): 81.1 mg/kg/day
TD50 (rat, strain F344/DuCrj, females, in feed, site: liver, lesion: several types, types named in the paper, dosed 104 weeks, study length 104 weeks): 351 mg/kg/day
TD50 (rat, strain F344/DuCrj, females, in feed, site: small intestine, lesion: adenocarcinoma, dosed 104 weeks, study length 104 weeks): 135 mg/kg/day
TD50 (rat, strain F344/DuCrj, females, in feed, site: small intestine, lesion: adenoma, dosed 104 weeks, study length 104 weeks): 171 mg/kg/day
TD50 (rat, strain F344/DuCrj, females, in feed, site: small intestine, lesion: mucinous carcinoma, dosed 104 weeks, study length 104 weeks): 711 mg/kg/day
TD50 (rat, strain F344/DuCrj, females, in feed, site: small intestine, lesion: several types, types named in the paper, dosed 104 weeks, study length 104 weeks): 81.1 mg/kg/day
TD50 (rat, strain F344/DuCrj, males, in feed, site: Zymbal's gland, lesion: squamous-cell carcinoma, dosed 104 weeks, study length 104 weeks): 569 mg/kg/day
TD50 (rat, strain F344/DuCrj, males, in feed, site: brain, lesion: astrocytoma, dosed 104 weeks, study length 104 weeks): 281 mg/kg/day
TD50 (rat, strain F344/DuCrj, males, in feed, site: colon, lesion: adenocarcinoma, dosed 104 weeks, study length 104 weeks): 185 mg/kg/day
TD50 (rat, strain F344/DuCrj, males, in feed, site: colon, lesion: adenoma, dosed 104 weeks, study length 104 weeks): 185 mg/kg/day
TD50 (rat, strain F344/DuCrj, males, in feed, site: colon, lesion: several types, types named in the paper, dosed 104 weeks, study length 104 weeks): 88.9 mg/kg/day
TD50 (rat, strain F344/DuCrj, males, in feed, site: liver, lesion: several types, types named in the paper, dosed 104 weeks, study length 104 weeks): 52.1 mg/kg/day
TD50 (rat, strain F344/DuCrj, males, in feed, site: small intestine, lesion: adenocarcinoma, dosed 104 weeks, study length 104 weeks): 45.1 mg/kg/day
TD50 (rat, strain F344/DuCrj, males, in feed, site: small intestine, lesion: adenoma, dosed 104 weeks, study length 104 weeks): 137 mg/kg/day
TD50 (rat, strain F344/DuCrj, males, in feed, site: small intestine, lesion: mucinous carcinoma, dosed 104 weeks, study length 104 weeks): 281 mg/kg/day
TD50 (rat, strain F344/DuCrj, males, in feed, site: small intestine, lesion: several types, types named in the paper, dosed 104 weeks, study length 104 weeks): 33.8 mg/kg/day

O=NN1CCCCCCCCCCCC1
TD50 (rat, strain NZR/Gd, females, by gavage, site: liver, lesion: hepatocellular tumor, dosed 52 weeks, study length 171 weeks): 10.9 mg/kg/day
TD50 (rat, strain NZR/Gd, females, by gavage, site: lung, lesion: several types, types named in the paper, dosed 52 weeks, study length 171 weeks): 7.96 mg/kg/day
TD50 (rat, strain NZR/Gd, males, by gavage, site: heart, lesion: one or several types, types not named, dosed 52 weeks, study length 150 weeks): 2.15 mg/kg/day
TD50 (rat, strain NZR/Gd, males, by gavage, site: liver, lesion: hepatocellular tumor, dosed 52 weeks, study length 150 weeks): 16.8 mg/kg/day
TD50 (rat, strain NZR/Gd, males, by gavage, site: lung, lesion: several types, types named in the paper, dosed 52 weeks, study length 150 weeks): 14.6 mg/kg/day

O=C1NCCN1
TD50 (mouse, strain B6AKF1, females, oral dosing, site: any site (literature study), lesion: several types, types named in the paper, dosed 76 weeks, study length 76 weeks): 473 mg/kg/day (inactive)
carcinogen call (mouse, strain B6AKF1, females, oral dosing, site: liver, lesion: hepatoma, dosed 76 weeks, study length 76 weeks): negative (inactive)
TD50 (mouse, strain B6AKF1, females, oral dosing, site: lung, lesion: adenoma, dosed 76 weeks, study length 76 weeks): 505 mg/kg/day (inactive)
carcinogen call (mouse, strain B6AKF1, males, oral dosing, site: any site (literature study), lesion: several types, types named in the paper, dosed 76 weeks, study length 76 weeks): negative (inactive)
TD50 (mouse, strain B6AKF1, males, oral dosing, site: liver, lesion: hepatoma, dosed 76 weeks, study length 76 weeks): 500 mg/kg/day (inactive)
carcinogen call (mouse, strain B6AKF1, males, oral dosing, site: lung, lesion: adenoma, dosed 76 weeks, study length 76 weeks): negative (inactive)
carcinogen call (mouse, strain B6C3F1, females, oral dosing, site: any site (literature study), lesion: one or several types, types not named, dosed 76 weeks, study length 76 weeks): negative (inactive)
carcinogen call (mouse, strain B6C3F1, females, oral dosing, site: liver, lesion: hepatoma, dosed 76 weeks, study length 76 weeks): negative (inactive)
carcinogen call (mouse, strain B6C3F1, females, oral dosing, site: lung, lesion: several types, types named in the paper, dosed 76 weeks, study length 76 weeks): negative (inactive)
TD50 (mouse, strain B6C3F1, males, oral dosing, site: any site (literature study), lesion: several types, types named in the paper, dosed 76 weeks, study length 76 weeks): 87.1 mg/kg/day (inactive)
TD50 (mouse, strain B6C3F1, males, oral dosing, site: liver, lesion: hepatoma, dosed 76 weeks, study length 76 weeks): 242 mg/kg/day (inactive)
TD50 (mouse, strain B6C3F1, males, oral dosing, site: lung, lesion: adenoma, dosed 76 weeks, study length 76 weeks): 242 mg/kg/day (inactive)

O=NN(CC(F)(F)F)CC(F)(F)F
TD50 (rat, strain Fischer 344, females, in drinking water, site: liver, lesion: malignant tumor, dosed 30 weeks, study length 130 weeks): 4.98 mg/kg/day (inactive)
carcinogen call (rat, strain Sprague-Dawley, males, in drinking water, site: several sites, sites named in the paper, lesion: malignant tumor, dosed 30 weeks, study length 114 weeks): negative (inactive)

Cc1cc(C)c(S(=O)(=O)O)cc1N=Nc1cc(S(=O)(=O)O)c2ccccc2c1O
TD50 (dog, strain Beagle, females, in feed, site: adrenal gland, lesion: medullary adenoma, dosed 365 weeks, study length 365 weeks): 316 mg/kg/day
TD50 (dog, strain Beagle, females, in feed, site: any site (literature study), lesion: several types, types named in the paper, dosed 365 weeks, study length 365 weeks): 670 mg/kg/day
TD50 (dog, strain Beagle, females, in feed, site: mammary gland, lesion: adenocarcinoma, dosed 365 weeks, study length 365 weeks): 316 mg/kg/day (inactive)
carcinogen call (mouse, strain C3HeB/Jax, both sexes, in feed, site: any site (literature study), lesion: several types, types named in the paper, dosed 104 weeks, study length 104 weeks): negative (inactive)
carcinogen call (mouse, strain C3HeB/Jax, both sexes, in feed, site: liver, lesion: hepatoma, dosed 104 weeks, study length 104 weeks): negative (inactive)
TD50 (mouse, strain C57BL/He, both sexes, in feed, site: any site (literature study), lesion: several types, types named in the paper, dosed 104 weeks, study length 104 weeks): 20300 mg/kg/day (inactive)
TD50 (mouse, strain C57BL/He, both sexes, in feed, site: liver, lesion: hepatoma, dosed 104 weeks, study length 104 weeks): 57100 mg/kg/day (inactive)
TD50 (rat, strain Non-inbred, both sexes, in feed, site: any site (literature study), lesion: several types, types named in the paper, dosed 143 weeks, study length 143 weeks): 12000 mg/kg/day
TD50 (rat, strain Non-inbred, both sexes, in feed, site: liver, lesion: hepatoma, dosed 143 weeks, study length 143 weeks): 49500 mg/kg/day
TD50 (rat, strain Osborne-Mendel, both sexes, in feed, site: all sites, lesion: fibrosarcoma, dosed 104 weeks, study length 104 weeks): 20300 mg/kg/day (inactive)
carcinogen call (rat, strain Osborne-Mendel, both sexes, in feed, site: any site (literature study), lesion: several types, types named in the paper, dosed 104 weeks, study length 104 weeks): negative (inactive)
TD50 (rat, strain Osborne-Mendel, both sexes, in feed, site: liver, lesion: adenoma, dosed 104 weeks, study length 104 weeks): 59800 mg/kg/day (inactive)
carcinogen call (rat, strain Sprague-Dawley, both sexes, in feed, site: any site (literature study), lesion: several types, types named in the paper, dosed 104 weeks, study length 104 weeks): negative (inactive)
TD50 (rat, strain Wistar, both sexes, in feed, site: abdomen, lesion: malignant lymphoma, dosed 91 weeks, study length 91 weeks): 6130 mg/kg/day
